According to patent US10611740B2, “Aryl dihydro-2H-benzo[b][1,4]oxazine sulfonamide and related compounds for use as agonists of RORγ and the treatment of disease” (Lycera Corporation, priority 2015, dated 2020):

How the values were obtained:
Gal4-RORγ-LBD = target: T1, Gal4-RORγ-LBD (Homo sapiens, UniProt P51449); assay: Gal4-RORγ Luciferase Reporter Assay in HEK-293T Cells; assay type: cell-based; details: HEK-293 cells, 2 μM ursolic acid
T1 construct: expressed in transfected cells; host or cells: HEK-293 cells (pcDNA3.1neo plasmid)
T1 sequence (P51449 269-508 limits assumed): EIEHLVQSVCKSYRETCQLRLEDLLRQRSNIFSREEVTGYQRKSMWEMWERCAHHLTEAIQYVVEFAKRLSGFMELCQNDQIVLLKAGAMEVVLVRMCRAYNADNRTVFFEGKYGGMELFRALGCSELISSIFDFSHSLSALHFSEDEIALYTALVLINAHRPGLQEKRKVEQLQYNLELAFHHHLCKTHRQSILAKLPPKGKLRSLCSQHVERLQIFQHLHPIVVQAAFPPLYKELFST
Summary of the method: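 In transfected HEK-293 cells (Gal4-RORγ-LBD, Gal4-luciferase), test agents with 2 μM ursolic acid were incubated overnight at 37 °C before luminescent detection. Values are relative to the ursolic-acid-free, compound-free signal (100).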

RORγ-LBD = target: T2, RORγ-LBD (Homo sapiens, UniProt P51449); assay: RORγ-Ligand Binding Domain (LBD) TR-FRET Assay; assay type: biochemical;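 as to TR-FRET Assay Max Response: 665/615 nm ratio relative to signal without ursolic acid or compound set at 100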
T2 construct: made in house; host or cells: SF9 cells (baculovirus)
T2 sequence (P51449 269-508 limits assumed): T1 sequence (P51449 269-508 limits assumed)
Summary of the method: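 Lysate from SF9 cells expressing His-RORγ-LBD is diluted to about 3 nM final in 50 mM Tris pH 7.0 assay buffer. A biotin-tagged SRC1 LXXLL peptide goes in at 200 nM final, plus ursolic acid at 2 μM final. Test compounds carry 1% DMSO final; signal read by TR-FRET.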

- EC50 (Gal4-RORγ-LBD): 500 to 5000 nM
- EC50 (RORγ-LBD): < 500 nM
SMILES: CC(=O)N[C@H]1C[C@](C[C@H]2CN(S(=O)(=O)c3cccc(C(F)(F)F)c3)c3cc(-c4cc(F)ccc4F)ccc3O2)(C(=O)O)C1 [Compound 89B, (1r,3S)-3-acetamido-1-(((S)-6-(2,5-difluorophenyl)-4-((3-(trifluoro-methyl)phenyl)sulfonyl)-3,4-dihydro-2H-benzo[b][1,4]oxazin-2-yl)methyl)cyclobutane-1-carboxylic acid]
- Gal4-RORγ Assay Max Response (Gal4-RORγ-LBD): ** (The symbol “**” indicates a value in the range of greater than 90 to 150)
- TR-FRET Assay Max Response (RORγ-LBD): ** (The symbol “**” indicates a value in the range of greater than 90 to 150)
